SMILES strings stand for the structures.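 Tested at 5 concentrations; 48 h exposure; 96-well plates; endpoints linearly interpolated, else capped at highest concentration. GI50 marks 50% less growth. TGI is the concentration that stops growth completely.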

19 molecules from PubChem BioAssay (NCI) can be followed below.

For the first test, the system named is NCI-H522 lung. Description: growth of human tumour cells (NCI), 48 h.
For the molecule `CCN(CC)c1ccc(-c2cc(-c3cc(OC)c(OC)c(OC)c3)nc(N3CCOCC3)c2C#N)cc1`, the GI50 was 7.07 µM and the TGI worked out at 83.3 µM.
Consider `C=C(Br)C(C)(Br)CCC(Br)C(C)(C)Cl` (configuration not stated), for which the TGI was 20.4 µM.
As for `O=C(CCc1nnc2sc(-c3ccc(Cl)cc3Cl)nn12)c1nc2ncccc2[nH]1`, the GI50 was 1.9 µM and the TGI came out at 4.49 µM.
As to `NS(=O)(=O)c1cc(Br)c(N=Nc2ccc(O)c3ncccc23)c(Br)c1`, the TGI is more than 100 µM.
Consider `COc1ccc(-c2nnc(COc3ccc(C(=O)/C=C/c4ccco4)cc3)o2)cc1`, for which the GI50 was 2.59 µM and the TGI is 5.62 µM.
As for `OCc1ccc(-c2ccc(-c3ccc(CO)s3)o2)s1`, the TGI is more than 100 µM.
Turning to `Cc1ccccc1S(=O)(=O)OC1NS(=O)(=O)c2ccccc21` (configuration not stated), the TGI is more than 100 µM.
With `O=C(/C=C/c1ccncc1)c1cc(Cl)ccc1O`, the GI50 is 14.1 µM and the TGI is 29.6 µM.
With `Cc1cc(/C=C/c2ccc3cc(N(C)C)ccc3[n+]2C)c(C)n1-c1ccccc1`, the GI50 was 0.103 µM and the TGI amounted to 0.989 µM.

The test system of the next test is HCT-15 colon. Briefly: growth of human tumour cells (NCI), 48 h.
On to `O=C1OC(O)[C@@H]2[C@H]1[C@H]1CC[C@@H]2O1` (some centres not stated), for which the GI50 is more than 100 µM and the TGI is more than 100 µM.
Consider `O=C1c2cc3c(cc2-c2c1c1ccc(F)cc1c(=O)n2CCCNCCO)OCO3`, for which the GI50 was 0.0277 µM and the TGI was found to be 0.27 µM.
Molecule `COC(=O)C1=C(C)NC(C)=C(C(=O)OCCCN2CCC(c3ccccc3)(c3ccccc3)CC2)C1c1cccc([N+](=O)[O-])c1` (configuration not stated) yielded a TGI of 3.19 µM.
`CCCCCCCCC/C=C1\CCC(CN2CCOCC2)C1=O` (configuration not stated): the TGI was 7.05 µM.
The molecule `N=Nc1c(OC(=O)Nc2cccc(Cl)c2)[nH]c2ccccc12` gave a TGI of 18.9 µM.
The same measure, in the same setting: with `CC1(C)C2CCC(=O)C1CC2` (configuration not stated) the figure was more than 100 µM.
As to `Fc1cc2[nH]ncc2c2c3c(c(-c4cn[nH]c4)nc12)CCCC3`, the GI50 is 0.56 µM and the TGI was more than 61.5 µM.
In the same order, the values of `C=C1C(=O)O[C@H]2[C@H]1CC/C(COC(=O)c1c[nH]c3ccccc13)=C\CC[C@@]1(C)O[C@@H]21` are 0.258 µM and 0.773 µM.
In turn, `C/C(=N\NC(=S)NC(CCC(=O)O)C(=O)O)c1ccccn1` (configuration not stated) had a TGI of more than 100 µM.
For the molecule `CCN1CCN(c2nc(C)cc(N(CCNc3ccnc4cc(Cl)ccc34)Cc3ccc4c(c3)OCO4)n2)CC1`, the GI50 is 1.46 µM and the TGI was 3.26 µM.
Take `CCN(CC)c1ccc(-c2cc(-c3cc(OC)c(OC)c(OC)c3)nc(N3CCOCC3)c2C#N)cc1`: the GI50 is 0.584 µM and the TGI is more than 66.6 µM.
Molecule `C=C(Br)C(C)(Br)CCC(Br)C(C)(C)Cl` (configuration not stated) registered a TGI of 32.7 µM.
As for `O=C(CCc1nnc2sc(-c3ccc(Cl)cc3Cl)nn12)c1nc2ncccc2[nH]1`, the GI50 was 1.64 µM and the TGI is 4.61 µM.
Turning to `NS(=O)(=O)c1cc(Br)c(N=Nc2ccc(O)c3ncccc23)c(Br)c1`, the TGI is more than 100 µM.
As to `COc1ccc(-c2nnc(COc3ccc(C(=O)/C=C/c4ccco4)cc3)o2)cc1`, the GI50 was 1.8 µM and the TGI came to 4.25 µM.
Take `OCc1ccc(-c2ccc(-c3ccc(CO)s3)o2)s1`: the TGI is 81 µM.
Molecule `Cc1ccccc1S(=O)(=O)OC1NS(=O)(=O)c2ccccc21` (configuration not stated) showed a TGI of more than 100 µM.
For the molecule `O=C(/C=C/c1ccncc1)c1cc(Cl)ccc1O`, the GI50 is 22.4 µM and the TGI worked out at 63.8 µM.
In the same order, the values of `Cc1cc(/C=C/c2ccc3cc(N(C)C)ccc3[n+]2C)c(C)n1-c1ccccc1` are 1.31 µM and 6.3 µM.

The test system of a further test is SF-539 CNS. Briefly: growth of human tumour cells (NCI), 48 h.
Turning to `O=C1OC(O)[C@@H]2[C@H]1[C@H]1CC[C@@H]2O1` (some centres not stated), the GI50 was more than 100 µM and the TGI is more than 100 µM.
As to `O=C1c2cc3c(cc2-c2c1c1ccc(F)cc1c(=O)n2CCCNCCO)OCO3`, the GI50 is 0.0407 µM and the TGI came out at 0.324 µM.
As for `COC(=O)C1=C(C)NC(C)=C(C(=O)OCCCN2CCC(c3ccccc3)(c3ccccc3)CC2)C1c1cccc([N+](=O)[O-])c1` (configuration not stated), the TGI worked out at 3.27 µM.
With `CCCCCCCCC/C=C1\CCC(CN2CCOCC2)C1=O` (configuration not stated), the TGI is 3.74 µM.
Regarding `N=Nc1c(OC(=O)Nc2cccc(Cl)c2)[nH]c2ccccc12`, the TGI came out at 32.6 µM.
Consider `CC1(C)C2CCC(=O)C1CC2` (configuration not stated), for which the TGI was more than 100 µM.
In the case of `Fc1cc2[nH]ncc2c2c3c(c(-c4cn[nH]c4)nc12)CCCC3`, the GI50 is 1.14 µM and the TGI came out at 2.82 µM.
In the same order, the values of `C=C1C(=O)O[C@H]2[C@H]1CC/C(COC(=O)c1c[nH]c3ccccc13)=C\CC[C@@]1(C)O[C@@H]21` are 0.264 µM and 1 µM.
For `C/C(=N\NC(=S)NC(CCC(=O)O)C(=O)O)c1ccccn1` (configuration not stated), the TGI was more than 100 µM.
Consider `CCN1CCN(c2nc(C)cc(N(CCNc3ccnc4cc(Cl)ccc34)Cc3ccc4c(c3)OCO4)n2)CC1`, for which the GI50 is 1.7 µM and the TGI was found to be 3.18 µM.
For `CCN(CC)c1ccc(-c2cc(-c3cc(OC)c(OC)c(OC)c3)nc(N3CCOCC3)c2C#N)cc1`, in that order: 1.36 µM and 12.7 µM.
As to `C=C(Br)C(C)(Br)CCC(Br)C(C)(C)Cl` (configuration not stated), the TGI came to 31.6 µM.
As for `O=C(CCc1nnc2sc(-c3ccc(Cl)cc3Cl)nn12)c1nc2ncccc2[nH]1`, the GI50 is 1.96 µM and the TGI is 3.98 µM.
As to `NS(=O)(=O)c1cc(Br)c(N=Nc2ccc(O)c3ncccc23)c(Br)c1`, the TGI was more than 100 µM.
Consider `COc1ccc(-c2nnc(COc3ccc(C(=O)/C=C/c4ccco4)cc3)o2)cc1`, for which the GI50 was 1.8 µM and the TGI came to 3.63 µM.
`OCc1ccc(-c2ccc(-c3ccc(CO)s3)o2)s1` had a TGI of more than 85.8 µM.
Same read-out and setting: with `Cc1ccccc1S(=O)(=O)OC1NS(=O)(=O)c2ccccc21` (configuration not stated) the figure was more than 100 µM.
In the case of `O=C(/C=C/c1ccncc1)c1cc(Cl)ccc1O`, the GI50 is 18 µM and the TGI was determined as 41.9 µM.
Regarding `Cc1cc(/C=C/c2ccc3cc(N(C)C)ccc3[n+]2C)c(C)n1-c1ccccc1`, the GI50 is 0.336 µM and the TGI worked out at 2.47 µM.
